Assay results published in ChEMBL document CHEMBL6134884, “Identification of JNJ-61803534, a RORγt Inverse Agonist for the Treatment of Psoriasis” (J Med Chem, 2025).

Experiments:
[1] = Genotoxicity in Salmonella typhimurium by Ames II test; assay type: toxicity; settings: salmonella enterica subsp. enterica serovar typhimurium
[2] = Aqueous solubility of the compound at pH 7; assay type: physicochemical; settings: aqueous solution
[3] = Metabolic stability in human liver microsomes assessed as half life; assay type: ADME, Microsome
[4] = Half life in male Sprague-Dawley rat at 5 mg/kg, po or 1 mg/kg, iv measured 24 hrs post dose by LC-MS/MS analysis; assay type: ADME, organism-based; settings: in vivo
[5] = Half life in male overnight fasted Beagle dog at 5 mg/kg, po or 1 mg/kg, iv measured 24 hrs post dose by LC-MS/MS analysis; assay type: ADME, organism-based, Canis lupus familiaris; settings: in vivo
PXR [6] = target: T1, PXR (Homo sapiens, UniProt O75469); experiment: Activation of human PXR at 10 uM relative to control; assay type: toxicity; settings: read-out: Activity
T1 sequence (O75469 whole entry): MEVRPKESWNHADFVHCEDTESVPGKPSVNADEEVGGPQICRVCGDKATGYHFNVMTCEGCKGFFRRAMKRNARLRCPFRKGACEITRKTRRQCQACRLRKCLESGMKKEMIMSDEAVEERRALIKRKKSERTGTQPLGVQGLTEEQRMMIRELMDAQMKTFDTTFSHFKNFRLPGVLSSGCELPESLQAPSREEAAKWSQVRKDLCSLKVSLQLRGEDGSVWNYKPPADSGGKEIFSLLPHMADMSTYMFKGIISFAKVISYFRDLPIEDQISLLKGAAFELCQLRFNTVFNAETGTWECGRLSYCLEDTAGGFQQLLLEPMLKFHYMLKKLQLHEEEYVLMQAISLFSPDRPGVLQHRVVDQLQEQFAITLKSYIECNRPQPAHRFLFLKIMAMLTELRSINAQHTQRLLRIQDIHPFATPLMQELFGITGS

[7] = Inverse agonist activity at RORgammat in rat whole blood assessed as IL-17A production incubated for 1 hrs by ELISA analysis; assay type: tissue-based
PXR [8] = target: T1, PXR; experiment: Activation of human PXR at 5 uM relative to control; assay type: toxicity; settings: read-out: Activity
[9] = Volume of distribution at steady state in male overnight fasted Beagle dog at 5 mg/kg, po or 1 mg/kg, iv measured 24 hrs post dose by LC-MS/MS analysis; assay type: ADME, organism-based, Canis lupus familiaris; settings: in vivo
[10] = target: Voltage-gated inwardly rectifying potassium channel KCNH2 (Homo sapiens, UniProt Q12809); experiment: Inhibition of hERG by Q-patch clamp method; assay type: toxicity
Voltage-gated inwardly rectifying potassium channel KCNH2, sequence (Q12809 whole entry): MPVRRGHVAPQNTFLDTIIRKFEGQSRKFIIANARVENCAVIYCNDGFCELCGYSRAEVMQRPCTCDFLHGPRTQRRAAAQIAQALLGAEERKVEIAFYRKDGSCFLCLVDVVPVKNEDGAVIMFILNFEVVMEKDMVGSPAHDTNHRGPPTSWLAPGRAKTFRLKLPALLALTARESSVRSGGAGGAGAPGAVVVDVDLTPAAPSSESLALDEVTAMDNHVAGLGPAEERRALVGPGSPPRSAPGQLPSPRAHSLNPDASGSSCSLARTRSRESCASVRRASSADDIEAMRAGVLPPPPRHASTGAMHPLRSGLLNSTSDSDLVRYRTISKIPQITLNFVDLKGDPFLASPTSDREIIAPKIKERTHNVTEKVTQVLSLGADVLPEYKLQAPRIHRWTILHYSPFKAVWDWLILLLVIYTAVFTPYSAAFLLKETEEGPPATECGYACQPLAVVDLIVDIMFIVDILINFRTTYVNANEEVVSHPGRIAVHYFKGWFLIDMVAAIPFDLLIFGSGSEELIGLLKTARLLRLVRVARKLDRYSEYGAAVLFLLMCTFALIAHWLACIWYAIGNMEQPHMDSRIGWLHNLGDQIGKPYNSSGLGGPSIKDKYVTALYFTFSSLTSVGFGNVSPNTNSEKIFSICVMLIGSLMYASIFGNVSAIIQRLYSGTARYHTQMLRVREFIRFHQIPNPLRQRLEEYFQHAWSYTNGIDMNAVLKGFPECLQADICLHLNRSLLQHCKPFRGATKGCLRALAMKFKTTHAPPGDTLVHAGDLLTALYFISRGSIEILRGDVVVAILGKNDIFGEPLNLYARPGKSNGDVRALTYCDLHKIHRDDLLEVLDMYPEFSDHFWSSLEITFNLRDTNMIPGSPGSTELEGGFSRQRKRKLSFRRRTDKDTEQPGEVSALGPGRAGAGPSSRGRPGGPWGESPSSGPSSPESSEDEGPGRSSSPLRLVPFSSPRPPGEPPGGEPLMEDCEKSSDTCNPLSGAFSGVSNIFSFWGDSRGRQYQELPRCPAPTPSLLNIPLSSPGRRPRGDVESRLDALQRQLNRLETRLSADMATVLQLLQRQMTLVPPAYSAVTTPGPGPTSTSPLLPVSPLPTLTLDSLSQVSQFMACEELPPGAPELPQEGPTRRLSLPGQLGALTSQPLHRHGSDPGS

Cytochrome P450 2C9 = Cytochrome P450 2C9 (Homo sapiens, UniProt P11712); experiment: Inhibition of human CYP2C9; assay type: ADME
Cytochrome P450 2C9, sequence (P11712 whole entry): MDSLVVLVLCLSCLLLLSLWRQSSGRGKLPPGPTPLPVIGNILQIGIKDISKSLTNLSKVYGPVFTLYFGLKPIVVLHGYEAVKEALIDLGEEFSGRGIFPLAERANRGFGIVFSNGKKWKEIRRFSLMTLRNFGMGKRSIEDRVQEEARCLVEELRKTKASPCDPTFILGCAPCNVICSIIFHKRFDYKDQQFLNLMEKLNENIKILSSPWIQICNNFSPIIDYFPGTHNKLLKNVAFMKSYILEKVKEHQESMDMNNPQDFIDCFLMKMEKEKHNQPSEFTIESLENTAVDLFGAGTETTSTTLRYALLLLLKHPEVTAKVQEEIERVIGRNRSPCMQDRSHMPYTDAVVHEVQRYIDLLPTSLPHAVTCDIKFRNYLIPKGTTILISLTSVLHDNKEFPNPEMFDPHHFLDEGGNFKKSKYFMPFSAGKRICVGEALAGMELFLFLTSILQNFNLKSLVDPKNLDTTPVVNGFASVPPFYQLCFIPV

[11] = Plasma protein binding in mouse assessed as unbound fraction; assay type: ADME, cell-free
[12] = Solubility of compound in FaSSIF; assay type: physicochemical
[13] = Oral bioavailability in male Sprague-Dawley rat at 5 mg/kg measured 24 hrs post dose by LC-MS/MS analysis; assay type: ADME, organism-based; settings: in vivo
[14] = Plasma protein binding in human assessed as unbound fraction; assay type: ADME, cell-free
[15] = Aqueous solubility of the compound at pH 2; assay type: physicochemical; settings: aqueous solution
Cytochrome P450 2C8 = target: T2, Cytochrome P450 2C8 (Homo sapiens, UniProt P10632); experiment: Inhibition of human CYP2C8; assay type: ADME
T2 sequence (P10632 whole entry): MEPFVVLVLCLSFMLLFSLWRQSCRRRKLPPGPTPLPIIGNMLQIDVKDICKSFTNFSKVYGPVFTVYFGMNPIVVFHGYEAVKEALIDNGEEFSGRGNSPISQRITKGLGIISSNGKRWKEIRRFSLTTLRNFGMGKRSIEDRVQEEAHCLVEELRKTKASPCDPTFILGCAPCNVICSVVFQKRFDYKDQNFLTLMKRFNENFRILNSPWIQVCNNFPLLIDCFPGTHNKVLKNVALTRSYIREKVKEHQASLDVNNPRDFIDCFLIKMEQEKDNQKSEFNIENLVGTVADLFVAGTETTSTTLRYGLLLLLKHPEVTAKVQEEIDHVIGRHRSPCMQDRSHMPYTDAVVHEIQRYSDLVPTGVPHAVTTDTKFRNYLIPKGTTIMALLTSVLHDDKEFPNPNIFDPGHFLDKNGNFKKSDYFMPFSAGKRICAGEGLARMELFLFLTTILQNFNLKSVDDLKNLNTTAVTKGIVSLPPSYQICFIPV

[16] = Plasma protein binding in rat assessed as unbound fraction; assay type: ADME, cell-free
[17] = Plasma protein binding in dog assessed as unbound fraction; assay type: ADME, cell-free, Canis lupus familiaris
Cytochrome P450 2C19 = Cytochrome P450 2C19 (Homo sapiens, UniProt P33261); experiment: Inhibition of human CYP2C19; assay type: ADME
Cytochrome P450 2C19, sequence (P33261 whole entry): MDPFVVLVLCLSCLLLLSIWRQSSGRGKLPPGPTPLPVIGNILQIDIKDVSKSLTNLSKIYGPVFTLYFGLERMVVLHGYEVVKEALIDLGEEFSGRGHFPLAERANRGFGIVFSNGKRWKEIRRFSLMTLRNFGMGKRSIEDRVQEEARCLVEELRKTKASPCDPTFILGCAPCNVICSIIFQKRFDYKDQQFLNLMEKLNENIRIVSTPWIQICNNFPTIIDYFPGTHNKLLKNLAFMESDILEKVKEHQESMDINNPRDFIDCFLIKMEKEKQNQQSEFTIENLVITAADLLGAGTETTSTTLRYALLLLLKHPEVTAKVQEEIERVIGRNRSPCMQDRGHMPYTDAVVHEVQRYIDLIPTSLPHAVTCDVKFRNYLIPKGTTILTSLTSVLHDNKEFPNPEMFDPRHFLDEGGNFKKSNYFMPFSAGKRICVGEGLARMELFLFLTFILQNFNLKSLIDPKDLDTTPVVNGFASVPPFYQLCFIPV

[18] = Volume of distribution at steady state in male Sprague-Dawley rat at 5 mg/kg, po or 1 mg/kg, iv measured 24 hrs post dose by LC-MS/MS analysis; assay type: ADME, organism-based; settings: in vivo
Cytochrome P450 2D6 = Cytochrome P450 2D6 (Homo sapiens, UniProt P10635); experiment: Inhibition of human CYP2D6; assay type: ADME
Cytochrome P450 2D6, sequence (P10635 whole entry): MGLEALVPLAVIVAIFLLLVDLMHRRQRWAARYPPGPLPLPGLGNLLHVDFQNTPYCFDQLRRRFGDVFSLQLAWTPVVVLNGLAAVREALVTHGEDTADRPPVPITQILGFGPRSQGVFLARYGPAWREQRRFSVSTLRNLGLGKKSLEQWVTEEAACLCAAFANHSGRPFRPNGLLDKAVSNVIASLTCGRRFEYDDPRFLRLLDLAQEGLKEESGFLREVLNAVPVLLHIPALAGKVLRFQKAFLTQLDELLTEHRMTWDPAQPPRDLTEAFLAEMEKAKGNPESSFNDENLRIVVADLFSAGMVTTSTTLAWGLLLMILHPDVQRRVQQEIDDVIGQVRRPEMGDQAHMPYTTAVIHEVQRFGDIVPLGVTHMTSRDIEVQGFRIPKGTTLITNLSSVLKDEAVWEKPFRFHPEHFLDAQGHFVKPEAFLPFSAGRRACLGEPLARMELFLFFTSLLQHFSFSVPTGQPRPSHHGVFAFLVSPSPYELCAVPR

Cytochrome P450 3A4 [19] = target: T3, Cytochrome P450 3A4 (Homo sapiens, UniProt P08684); experiment: Time dependent inhibition of CYP3A4 (unknown origin); assay type: ADME
T3 sequence (P08684 whole entry): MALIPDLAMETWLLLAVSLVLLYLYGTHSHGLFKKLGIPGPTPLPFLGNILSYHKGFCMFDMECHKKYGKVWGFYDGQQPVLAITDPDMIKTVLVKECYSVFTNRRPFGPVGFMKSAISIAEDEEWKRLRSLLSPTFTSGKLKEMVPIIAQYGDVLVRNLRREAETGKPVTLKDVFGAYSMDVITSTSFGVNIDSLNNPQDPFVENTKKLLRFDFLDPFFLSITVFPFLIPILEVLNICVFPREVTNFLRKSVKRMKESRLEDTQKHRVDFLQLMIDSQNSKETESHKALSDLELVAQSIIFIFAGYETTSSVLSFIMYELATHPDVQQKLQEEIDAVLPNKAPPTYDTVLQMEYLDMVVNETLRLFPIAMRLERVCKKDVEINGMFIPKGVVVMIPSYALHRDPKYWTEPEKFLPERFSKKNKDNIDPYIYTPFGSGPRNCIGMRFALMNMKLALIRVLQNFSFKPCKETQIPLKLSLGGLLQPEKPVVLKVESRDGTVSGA

Cytochrome P450 3A4 [20] = target: T3, Cytochrome P450 3A4; experiment: Induction of CYP3A4 in human hepatocytes at 10 uM relative to control; assay type: ADME, cell-based, Hepatocyte
[21] = target: T4, Nuclear receptor subfamily 1 group I member 3 (Homo sapiens, UniProt Q14994); experiment: Agonist activity at CAR (unknown origin) up to 1.5 uM by mammalian 1-hybrid assay
T4 sequence (Q14994 whole entry): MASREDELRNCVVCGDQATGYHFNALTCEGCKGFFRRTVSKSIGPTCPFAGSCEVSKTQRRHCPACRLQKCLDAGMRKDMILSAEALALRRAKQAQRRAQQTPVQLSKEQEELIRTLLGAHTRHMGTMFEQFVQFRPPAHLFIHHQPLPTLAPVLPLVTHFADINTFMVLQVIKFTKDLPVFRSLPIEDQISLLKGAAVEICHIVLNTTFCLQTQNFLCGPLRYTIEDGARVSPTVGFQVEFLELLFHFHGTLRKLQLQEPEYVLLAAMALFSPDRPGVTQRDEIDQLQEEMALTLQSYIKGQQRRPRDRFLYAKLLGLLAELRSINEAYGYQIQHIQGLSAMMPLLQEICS

[22] = target: T5, Nuclear receptor ROR-gamma (Mus musculus, UniProt P51450); experiment: Inverse agonist activity at RORgammat in mouse whole blood assessed as IL-17A production incubated for 1 hrs by ELISA analysis
T5 sequence (P51450 whole entry): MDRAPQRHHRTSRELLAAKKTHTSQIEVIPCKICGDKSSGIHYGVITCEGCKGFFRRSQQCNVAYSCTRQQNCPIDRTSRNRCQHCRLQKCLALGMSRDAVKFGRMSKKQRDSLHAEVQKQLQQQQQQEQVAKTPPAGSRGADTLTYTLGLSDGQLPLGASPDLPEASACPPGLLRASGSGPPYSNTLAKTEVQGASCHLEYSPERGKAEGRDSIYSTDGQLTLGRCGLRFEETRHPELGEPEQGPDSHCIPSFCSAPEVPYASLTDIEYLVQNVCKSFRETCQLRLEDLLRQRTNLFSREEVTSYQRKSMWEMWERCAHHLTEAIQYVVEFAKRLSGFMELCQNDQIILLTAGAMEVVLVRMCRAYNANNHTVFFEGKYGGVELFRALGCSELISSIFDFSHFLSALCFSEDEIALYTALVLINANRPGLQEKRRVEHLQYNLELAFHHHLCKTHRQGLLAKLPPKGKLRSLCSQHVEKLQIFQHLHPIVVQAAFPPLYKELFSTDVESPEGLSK

[23] = target: T6, Nuclear receptor subfamily 1 group I member 2 (Homo sapiens, UniProt O75469); experiment: Activation of human PXR at 1 uM relative to control; assay type: toxicity
T6 sequence (O75469 whole entry): T1 sequence (O75469 whole entry)

Cytochrome P450 3A4 [24] = target: T3, Cytochrome P450 3A4; experiment: Inhibition of human CYP3A4; assay type: ADME
hERG = hERG (Homo sapiens, UniProt Q12809); experiment: Inhibition of hERG at 10 uM by Q-patch clamp method relative to control; assay type: toxicity
hERG, sequence (Q12809 whole entry): as the sequence (Q12809 whole entry) above

[25] = Oral bioavailability in male overnight fasted Beagle dog at 5 mg/kg measured 24 hrs post dose by LC-MS/MS analysis; assay type: ADME, organism-based, Canis lupus familiaris; settings: in vivo
[26] = target: T4, Nuclear receptor subfamily 1 group I member 3; experiment: Antagonist activity at CAR (unknown origin) up to 1.5 uM by mammalian 1-hybrid assay
[27] = Metabolic stability in rat liver microsomes assessed as half life; assay type: ADME, Microsome
[28] = Solubility of compound in SGF; assay type: physicochemical
[29] = Metabolic stability in mouse liver microsomes assessed as half life; assay type: ADME, Microsome

With `C[C@H]1CCCN1C(=O)c1nc(C(=O)NCC(C)(C)O)sc1-c1ccc(C(O)(C(F)(F)F)C(F)(F)F)c(Cl)c1Cl` as the molecule, how does the Activity [1] read?
Its Activity is “Non-toxic”.

And the solubility [2]?
The solubility was < 4 µM.

And the half-life [3]?
The half-life was > 3 h.

And the half-life [4]?
The half-life was 4.1 h.

And the half-life [5]?
Its half-life is 26.2 h.

What about the activity at 10 µM (PXR [6]) of the same molecule?
Its activity at 10 µM is 42%.

And the IC50 [7]?
Its IC50 is 0.12 µM.

What about the activity at 5 µM (PXR [8]) of the same molecule?
The activity at 5 µM was 21%.

And the Vdss [9]?
Its Vdss is 1.5 L/kg.

What about the IC50 [10] of the same molecule?
The IC50 was 29.5 µM.

What about the IC50 (Cytochrome P450 2C9) of the same molecule?
The IC50 was 4.4 µM.

What about the fraction unbound [11] of the same molecule?
The fraction unbound was 0.008.

What about the solubility [12] of the same molecule?
Its solubility is < 4 µM.

And the bioavailability [13]?
The bioavailability was 69%.

And the fraction unbound [14]?
Its fraction unbound is 0.008.

What about the solubility [15] of the same molecule?
The solubility was < 4 µM.

And the IC50 (Cytochrome P450 2C8)?
Its IC50 is 18 µM.

What about the fraction unbound [16] of the same molecule?
Its fraction unbound is 0.012.

What about the fraction unbound [17] of the same molecule?
The fraction unbound was 0.009.

What about the IC50 (Cytochrome P450 2C19) of the same molecule?
Its IC50 is 31 µM.

What about the Vdss [18] of the same molecule?
Its Vdss is 1.3 L/kg.

What about the IC50 (Cytochrome P450 2D6) of the same molecule?
Its IC50 is 3.8 µM.

What about the TDI (Cytochrome P450 3A4 [19]) of the same molecule?
Its TDI is “Not_active”.

And the Activity (Cytochrome P450 3A4 [20])?
Its Activity is 26%.

What about the Activity [21] of the same molecule?
The Activity was “Not_active”.

What about the IC50 [22] of the same molecule?
Its IC50 is 0.21 µM.

What about the Activity [23] of the same molecule?
Its Activity is 18%.

What about the IC50 (Cytochrome P450 3A4 [24]) of the same molecule?
The IC50 was 20 µM.

What about the inhibition at 10 µM (hERG) of the same molecule?
The inhibition at 10 µM was 52%.

What about the bioavailability [25] of the same molecule?
Its bioavailability is 100%.

What about the Activity [26] of the same molecule?
Its Activity is “Not_active”.

And the half-life [27]?
Its half-life is > 3 h.

And the solubility [28]?
The solubility was < 4 µM.

And the half-life [29]?
Its half-life is > 3 h.
